This note sets out measurements from article PMC2933744 (Biochemistry, 2008).

For test [1], the target named is T1, hPRMT1 (Homo sapiens, UniProt Q99873). Nature of the test: Initial velocity studies. It counts as biochemical. The note with it: for K(SAM) (Michaelis constant): pH 8.0, 37°C, fit to eq 2.
The target in test [2] is T1, hPRMT1. As to the kind of experiment: Dead-end analogue inhibition, AcH4-21 and SAM as substrates. The conditions noted are these: pH 8.0, 37°C. The test is classed as biochemical.

T1 sequence (Q99873 whole entry): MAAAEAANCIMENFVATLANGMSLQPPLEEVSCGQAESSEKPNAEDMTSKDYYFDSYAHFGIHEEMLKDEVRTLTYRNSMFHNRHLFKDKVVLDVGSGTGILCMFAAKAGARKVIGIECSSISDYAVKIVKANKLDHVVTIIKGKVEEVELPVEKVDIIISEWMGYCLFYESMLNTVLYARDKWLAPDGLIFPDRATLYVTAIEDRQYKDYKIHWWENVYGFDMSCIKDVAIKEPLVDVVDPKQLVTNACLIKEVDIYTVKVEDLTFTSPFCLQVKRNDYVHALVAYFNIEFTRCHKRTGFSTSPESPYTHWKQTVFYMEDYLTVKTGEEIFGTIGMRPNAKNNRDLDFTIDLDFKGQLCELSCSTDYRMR

Turning to `C[S+](CC[C@H](N)C(=O)[O-])C[C@H]1O[C@@H](n2cnc3c(N)ncnc32)[C@H](O)[C@@H]1O` (stereo partly drawn) [SAM, S-adenosyl-L-methionine], the “K(SAM) (Michaelis constant)” value was 8.35 ± 2.11 at hPRMT1 [1] (AcH4-21 varied, fixed SAM 1, 2.5, 7.5 µM) and 21.1 ± 4.0 at hPRMT1 [1] (SAM varied, fixed AcH4-21 2.5, 5, 25 µM). Besides, the “Initial velocity pattern (double reciprocal plots)” value on hPRMT1 [1] (SAM and peptide varied at various fixed concentrations of the other substrate) is “intersect in the second quadrant”.
As to `Nc1ncnc2c1ncn2[C@@H]1O[C@H](C[C@@H](N)CC[C@H](N)C(=O)O)[C@@H](O)[C@H]1O` [Sinefungin], the “Kii (intercept Ki)” value on hPRMT1 [2] (AcH4-21 varied, fixed [SAM] = 15 µM, mixed fit eq 5) came out at 0.47 ± 0.19 µM. Further, on hPRMT1 [2] (SAM varied, fixed AcH4-21 10 µM, 212 nM hPRMT1, at least duplicate), the Inhibition pattern entry is “Competitive”.
